{"source": "ChEMBL document CHEMBL3621157", "about": "“Design, synthesis and biological evaluation of novel 1,2,4-triazolo and 1,2,4-triazino[4,3-a]quinoxalines as potential anticancer and antimicrobial agents” (2015)", "format_in_all_cases": "functional", "key": {"Candida albicans": {"system": "Candida albicans", "test": "Antimicrobial activity against Candida albicans DSM 70014 incubated for 48 hrs by two-fold serial broth dilution method", "conditions": "DSM 70014, 48 h"}, "[1]": {"test": "Growth inhibition of human HCC2998 cells incubated for 48 hrs by sulforhodamine B assay", "conditions": "HCC 2998, 48 h"}, "[2]": {"test": "Growth inhibition of human RPMI8226 cells incubated for 48 hrs by sulforhodamine B assay", "conditions": "RPMI-8226, 48 h"}, "[3]": {"test": "Growth inhibition of human RXF393 cells incubated for 48 hrs by sulforhodamine B assay", "conditions": "RXF 393, 48 h"}, "HCT-116 [4]": {"system": "HCT-116", "test": "Growth inhibition of human HCT116 cells incubated for 48 hrs by sulforhodamine B assay", "conditions": "HCT-116, 48 h"}, "HCT-116 [5]": {"system": "HCT-116", "test": "Growth inhibition of human HCT116 cells at 10 uM incubated for 48 hrs by sulforhodamine B assay", "conditions": "HCT-116, 48 h, read-out: GI"}, "[6]": {"test": "Growth inhibition of human MOLT4 cells at 10 uM incubated for 48 hrs by sulforhodamine B assay", "conditions": "MOLT-4, 48 h, read-out: GI"}, "SR": {"system": "SR", "test": "Growth inhibition of human SR cells at 10 uM incubated for 48 hrs by sulforhodamine B assay", "conditions": "read-out: GI"}, "A498 [7]": {"system": "A498", "test": "Growth inhibition of human A498 cells at 10 uM incubated for 48 hrs by sulforhodamine B assay", "conditions": "A498, 48 h, read-out: GI"}, "Bacillus subtilis [8]": {"system": "Bacillus subtilis", "test": "Antimicrobial activity against Bacillus subtilis ATCC 6633 incubated for 24 hrs followed by transfer of colonies to Muller-Hinton agar plate and measured after 18 hrs by two-fold serial broth dilution method"}, "TK-10": {"system": "TK-10", "test": "Growth inhibition of human TK10 cells incubated for 48 hrs by sulforhodamine B assay", "conditions": "TK-10, 48 h"}, "SF-268": {"system": "SF-268", "test": "Growth inhibition of human SF268 cells at 10 uM incubated for 48 hrs by sulforhodamine B assay", "conditions": "SF-268, 48 h, read-out: GI"}, "UO-31": {"system": "UO-31", "test": "Growth inhibition of human UO31 cells incubated for 48 hrs by sulforhodamine B assay", "conditions": "UO-31, 48 h"}, "SK-OV-3": {"system": "SK-OV-3", "test": "Growth inhibition of human SKOV3 cells incubated for 48 hrs by sulforhodamine B assay", "conditions": "SK-OV-3, 48 h"}, "[9]": {"test": "Growth inhibition of human LOXIMVI cells incubated for 48 hrs by sulforhodamine B assay", "conditions": "LOX IMVI"}, "[10]": {"test": "Growth inhibition of human HOP92 cells at 10 uM incubated for 48 hrs by sulforhodamine B assay", "conditions": "HOP-92, 48 h, read-out: GI"}, "Escherichia coli [11]": {"system": "Escherichia coli", "test": "Antimicrobial activity against Escherichia coli ATCC 11775 incubated at 37 degC for 24 hrs by cup diffusion method"}, "[12]": {"test": "Growth inhibition of human EKVX cells incubated for 48 hrs by sulforhodamine B assay"}, "Bacillus subtilis [13]": {"system": "Bacillus subtilis", "test": "Antimicrobial activity against Bacillus subtilis ATCC 6633 incubated for 24 hrs by two-fold serial broth dilution method", "conditions": "ATCC 6633, 24 h"}, "T47D": {"system": "T47D", "test": "Growth inhibition of human T47D cells incubated for 48 hrs by sulforhodamine B assay"}, "NCI-H460 [14]": {"system": "NCI-H460", "test": "Growth inhibition of human NCI-H460 cells incubated for 48 hrs by sulforhodamine B assay", "conditions": "NCI-H460, 48 h"}, "A498 [15]": {"system": "A498", "test": "Growth inhibition of human A498 cells incubated for 48 hrs by sulforhodamine B assay", "conditions": "A498, 48 h"}, "[16]": {"test": "Growth inhibition of human LOXIMVI cells at 10 uM incubated for 48 hrs by sulforhodamine B assay", "conditions": "LOX IMVI, read-out: GI"}, "[17]": {"test": "Growth inhibition of human MOLT4 cells incubated for 48 hrs by sulforhodamine B assay", "conditions": "MOLT-4, 48 h"}, "HT-29": {"system": "HT-29", "test": "Growth inhibition of human HT-29 cells incubated for 48 hrs by sulforhodamine B assay", "conditions": "HT-29, 48 h"}, "KM12 [18]": {"system": "KM12", "test": "Growth inhibition of human KM12 cells at 10 uM incubated for 48 hrs by sulforhodamine B assay", "conditions": "KM12, 48 h, read-out: GI"}, "U-251 [19]": {"system": "U-251", "test": "Growth inhibition of human U251 cells incubated for 48 hrs by sulforhodamine B assay", "conditions": "U-251, 48 h"}, "NCI-H460 [20]": {"system": "NCI-H460", "test": "Growth inhibition of human NCI-H460 cells at 10 uM incubated for 48 hrs by sulforhodamine B assay", "conditions": "NCI-H460, 48 h, read-out: GI"}, "K562": {"system": "K562", "test": "Growth inhibition of human K562 cells at 10 uM incubated for 48 hrs by sulforhodamine B assay", "conditions": "K562, 48 h, read-out: GI"}, "[21]": {"test": "Growth inhibition of human BT549 cells incubated for 48 hrs by sulforhodamine B assay", "conditions": "BT-549, 48 h"}, "Escherichia coli [22]": {"system": "Escherichia coli", "test": "Antimicrobial activity against Escherichia coli ATCC 11775 incubated for 24 hrs by two-fold serial broth dilution method", "conditions": "ATCC 11775, 24 h"}, "MDA-MB-468": {"system": "MDA-MB-468", "test": "Growth inhibition of human MDA-MB-468 cells incubated for 48 hrs by sulforhodamine B assay", "conditions": "MDA-MB-468, 48 h"}, "NCI-H322M": {"system": "NCI-H322M", "test": "Growth inhibition of human NCI-H322M cells incubated for 48 hrs by sulforhodamine B assay"}, "Pseudomonas aeruginosa [23]": {"system": "Pseudomonas aeruginosa", "test": "Antimicrobial activity against Pseudomonas aeruginosa ATCC 10145 incubated at 37 degC for 24 hrs by cup diffusion method"}, "HCT-15": {"system": "HCT-15", "test": "Growth inhibition of human HCT15 cells incubated for 48 hrs by sulforhodamine B assay", "conditions": "HCT-15, 48 h"}, "OVCAR-8": {"system": "OVCAR-8", "test": "Growth inhibition of human OVCAR8 cells incubated for 48 hrs by sulforhodamine B assay", "conditions": "OVCAR-8, 48 h"}, "KM12 [24]": {"system": "KM12", "test": "Growth inhibition of human KM12 cells incubated for 48 hrs by sulforhodamine B assay", "conditions": "KM12, 48 h"}, "CAKI-1": {"system": "CAKI-1", "test": "Growth inhibition of human CAKI-1 cells incubated for 48 hrs by sulforhodamine B assay", "conditions": "CAKI-1, 48 h"}, "786-0": {"system": "786-0", "test": "Growth inhibition of human 786-0 cells incubated for 48 hrs by sulforhodamine B assay", "conditions": "786-0, 48 h"}, "Staphylococcus aureus": {"system": "Staphylococcus aureus", "test": "Antimicrobial activity against Staphylococcus aureus DSM 1104 incubated for 24 hrs by two-fold serial broth dilution method", "conditions": "DSM 1104, 24 h"}, "UACC-62": {"system": "UACC-62", "test": "Growth inhibition of human UACC62 cells incubated for 48 hrs by sulforhodamine B assay", "conditions": "UACC-62, 48 h"}, "IGROV-1": {"system": "IGROV-1", "test": "Growth inhibition of human IGROV1 cells incubated for 48 hrs by sulforhodamine B assay", "conditions": "IGROV-1, 48 h"}, "U-251 [25]": {"system": "U-251", "test": "Growth inhibition of human U251 cells at 10 uM incubated for 48 hrs by sulforhodamine B assay", "conditions": "U-251, 48 h, read-out: GI"}, "PC-3": {"system": "PC-3", "test": "Growth inhibition of human PC3 cells at 10 uM incubated for 48 hrs by sulforhodamine B assay", "conditions": "PC-3, 48 h, read-out: GI"}, "Pseudomonas aeruginosa [26]": {"system": "Pseudomonas aeruginosa", "test": "Antimicrobial activity against Pseudomonas aeruginosa ATCC 10145 incubated for 24 hrs followed by transfer of colonies to Muller-Hinton agar plate and measured after 18 hrs by two-fold serial broth dilution method"}, "[27]": {"test": "Growth inhibition of human NCI-ADR-RES cells incubated for 48 hrs by sulforhodamine B assay"}}}
{"compound": "Clc1ccccc1-c1nnc2c(Cc3ccccc3)nc3ccccc3n12", "values": [{"measurement": "MIC", "setting": "Candida albicans", "value": 100, "unit": "µg/mL"}, {"measurement": "GI50", "setting": "[1]", "value": 42.8, "unit": "µM"}, {"measurement": "GI50", "setting": "[2]", "value": 5.64, "unit": "µM"}, {"measurement": "GI50", "setting": "[3]", "value": 8.45, "unit": "µM"}, {"measurement": "GI50", "setting": "HCT-116 [4]", "value": 3.21, "unit": "µM"}, {"measurement": "inhibition of growth at 10 µM", "setting": "HCT-116 [5]", "value": 65.9, "unit": "%"}, {"measurement": "inhibition of growth at 10 µM", "setting": "[6]", "value": 60.4, "unit": "%"}, {"measurement": "inhibition of growth at 10 µM", "setting": "SR", "value": 84.9, "unit": "%"}, {"measurement": "inhibition of growth at 10 µM", "setting": "A498 [7]", "value": 61.1, "unit": "%"}, {"measurement": "MBC", "setting": "Bacillus subtilis [8]", "value": 50, "unit": "µg/mL"}, {"measurement": "GI50", "setting": "TK-10", "value": 37.4, "unit": "µM"}, {"measurement": "inhibition of growth at 10 µM", "setting": "SF-268", "value": 47.5, "unit": "%"}, {"measurement": "GI50", "setting": "UO-31", "value": 25, "unit": "µM"}, {"measurement": "GI50", "setting": "SK-OV-3", "value": 23.9, "unit": "µM"}, {"measurement": "GI50", "setting": "[9]", "value": 3.69, "unit": "µM"}, {"measurement": "inhibition of growth at 10 µM", "setting": "[10]", "value": 50.1, "unit": "%"}, {"measurement": "inhibition zone (IZ)", "setting": "Escherichia coli [11]", "value": 10, "unit": "mm"}, {"measurement": "GI50", "setting": "[12]", "value": 5.96, "unit": "µM"}, {"measurement": "MIC", "setting": "Bacillus subtilis [13]", "value": 25, "unit": "µg/mL"}, {"measurement": "GI50", "setting": "T47D", "value": 6.82, "unit": "µM"}, {"measurement": "GI50", "setting": "NCI-H460 [14]", "value": 3.49, "unit": "µM"}, {"measurement": "GI50", "setting": "A498 [15]", "value": 1.8, "unit": "µM"}, {"measurement": "inhibition of growth at 10 µM", "setting": "[16]", "value": 60.6, "unit": "%"}, {"measurement": "GI50", "setting": "[17]", "value": 9.04, "unit": "µM"}, {"measurement": "GI50", "setting": "HT-29", "value": 9.15, "unit": "µM"}, {"measurement": "inhibition of growth at 10 µM", "setting": "KM12 [18]", "value": 51.1, "unit": "%"}, {"measurement": "GI50", "setting": "U-251 [19]", "value": 5.18, "unit": "µM"}, {"measurement": "inhibition of growth at 10 µM", "setting": "NCI-H460 [20]", "value": 84.4, "unit": "%"}, {"measurement": "inhibition of growth at 10 µM", "setting": "K562", "value": 78.6, "unit": "%"}, {"measurement": "GI50", "setting": "[21]", "value": 6.72, "unit": "µM"}, {"measurement": "MIC", "setting": "Escherichia coli [22]", "value": 25, "unit": "µg/mL"}, {"measurement": "GI50", "setting": "MDA-MB-468", "value": 5.55, "unit": "µM"}, {"measurement": "GI50", "setting": "NCI-H322M", "value": 53.9, "unit": "µM"}, {"measurement": "inhibition zone (IZ)", "setting": "Pseudomonas aeruginosa [23]", "value": 14, "unit": "mm"}, {"measurement": "GI50", "setting": "HCT-15", "value": 1.96, "unit": "µM"}, {"measurement": "GI50", "setting": "OVCAR-8", "value": 7.21, "unit": "µM"}, {"measurement": "GI50", "setting": "KM12 [24]", "value": 9.48, "unit": "µM"}, {"measurement": "GI50", "setting": "CAKI-1", "value": 9.71, "unit": "µM"}, {"measurement": "GI50", "setting": "786-0", "value": 10.4, "unit": "µM"}, {"measurement": "MIC", "setting": "Staphylococcus aureus", "value": 100, "unit": "µg/mL"}, {"measurement": "GI50", "setting": "UACC-62", "value": 7.96, "unit": "µM"}, {"measurement": "GI50", "setting": "IGROV-1", "value": 27.7, "unit": "µM"}, {"measurement": "inhibition of growth at 10 µM", "setting": "U-251 [25]", "value": 57.2, "unit": "%"}, {"measurement": "inhibition of growth at 10 µM", "setting": "PC-3", "value": 60.9, "unit": "%"}, {"measurement": "MBC", "setting": "Pseudomonas aeruginosa [26]", "value": 100, "unit": "µg/mL"}, {"measurement": "GI50", "setting": "[27]", "value": 7.04, "unit": "µM"}]}
